Results as given in patent publication US10702484B2, “Use of 3-(3-hydroxy-4-methoxy-phenyl)-1-(2,4,6-trihydroxy-phenyl) propan-1-one” (SYMRISE AG, priority 2016, dated 2020).

What was measured:
group of experts [1] = test: Modification of the sweet profile of a sucrose solution (sensory panel); type: in vivo; details: for Beginning of sweet impression (<2 sec) / Overall sweet impression / Sugar full flavour and taste: n=12
Text: The taste profile of a 7 wt % aqueous sucrose solution was compared with by a group of experts (n=12) in each case with a specimen having an equivalent composition and additionally a 1.5% sucrose (B), 5 ppm, 7 ppm or 20 ppm hesperetin dihydrochalcone (I).

[2] = J. Chem. Senses 1979, 4(1), 35-47; cited from earlier work
group of experts [3] = test: Bitter-reduction of a bitter substance solution (sensory panel rating); type: in vivo; details: for Bitter impression of bitter substance + compound (I) (average values): n=18
Text: In order to quantify the decrease (i.e. the masking or reduction) in bitter impression in a specimen, the bitterness of a solution containing different bitter tasting substances in specific concentrations was compared by a group of experts (n=18) in each case with a specimen having an equivalent composition and additionally a specific concentration of hesperetin dihydrochalcone (I) (rating: 1 [not bitter] to 100 [extremely bitter]).
For the assessment, i.e. the calculation of the reduction (in %) of the bitter impression in each case the average values of the assessments of the group of experts for the respective bitter substance solution and the bitter substance solution also containing 10 ppm hesperetin dihydrochalcone (I) were used (*sign.lev. α=0.05). For comparison issues, the calculation of the reduction (in %) of the bitter impression for the respective bitter substance solution containing deoxy hesperetin dihydrochalcone is also included.

group of experts [4] = test: Improvement of the taste profile of chicken flavour (sensory panel); type: in vivo; details: addition of 2 ppm; n=3
Text: A group of experts (n=3) evaluated the influence on the taste profile of a chicken flavour with the typical descriptors of chicken meat note, boiled note, bony, light sour by the addition of 2 ppm hesperetin dihydrochalcone (I).

group of experts [5] = test: Modulation of the cooling-profile of WS-3 (sensory panel); type: in vivo; details: 1 ppm added to aqueous solution of 5 wt % sucrose and 4 ppm WS-3; n=5
Text: A group of experts (n=5) evaluated the influence on the cooling profile of an aqueous solution containing 5 wt % sucrose and 4 ppm WS-3.

group of 30 experts = test: Intrinsic sweetness, two-alternative forced choice (2AFC) test; type: in vivo; details: 10 ppm in water, α=0.05
Text: A group of 30 experts were asked in a two-alternative forced choice (2AFC) test to select the solution with the stronger sweet impression from a couple of solutions. The evaluated solutions-couples are selected from a group of solutions consisting of a solution of hesperetin dihydrochalcone (I) in water (20 ppm, 15 ppm, 12.5 ppm, and 10 ppm) and a 1.5 wt % aqueous sucrose solution.

group of experts [6] = test: Intensification of the sweet impression of a sugar solution (sensory panel rating); type: in vivo
Text: In order to quantify the intensification of the sweet impression, in each case the sweetness of a 5% sucrose solution was compared by a group of experts with a specimen containing 5% sucrose and 1 ppm, 5 ppm, 7 ppm or 10 ppm of the hesperetin dihydrochalcone (I) to be used according to the invention (rating: 1 [not sweet] to 10 [extremely sweet]). For comparison issues, the intensification of the sweet impression containing with a specimen containing 5% sucrose and 10 ppm or 25 ppm deoxy hesperetin dihydrochalcone is also included.
For the assessment, i.e. calculation of the intensification (in %) of the sweet impression in each case the average values of the assessments of the group of experts for the sucrose solution and the specimen for comparison containing sucrose and hesperetin dihydrochalcone (I) or deoxy hesperetin dihydrochalcone were used.

[7] = in soft drinks; purity>90%; cited from earlier work
[8] = in the presence of acids; cited from earlier work
[9] = 7% Sucrose-solution + 1.5% Sucrose (=8.5% sucrose solution)
[10] = 7 wt % aqueous sucrose solution
[11] = 5% sucrose + 10 ppm test substance
[12] = 5% sucrose + 10 ppm test substance, rating 1 to 10

OC[C@H]1O[C@@](CO)(O[C@H]2O[C@H](CO)[C@@H](O)[C@H](O)[C@H]2O)[C@@H](O)[C@@H]1O [Sucrose, sucrose, reference compound]
Beginning of sweet impression (<2 sec) (group of experts [1]; [9]): 5.74
Overall sweet impression (group of experts [1]; [9]): 6.36
Sugar full flavour and taste (group of experts [1]; [9]): 5.17

COc1ccc(CCC(=O)c2ccccc2O)cc1O [dihydrochalcone (2)]
Taste (sweetening power) as presented in the publication [2]: intensively sweet tasting

COc1ccc(CCC(=O)c2c(O)cccc2O)cc1O [dihydrochalcone (3)]
Taste (sweetening power) as presented in the publication [2]: tasteless

COc1ccc(CCC(=O)c2c(O)cc(O)cc2O)cc1O [hesperetin dihydrochalcone (I), 3-(3-Hydroxy-4-methoxy-phenyl)-1-(2,4,6-trihydroxyphenyl)propan-1-one]
Beginning of sweet impression (<2 sec) (group of experts [1]; 7% Sucrose-solution + 5 ppm): 4.63
Overall sweet impression (group of experts [1]; 7% Sucrose-solution + 5 ppm): 5.24
Sugar full flavour and taste (group of experts [1]; 7% Sucrose-solution + 5 ppm): 4.26
Beginning of sweet impression (<2 sec) (group of experts [1]; 7% Sucrose-solution + 7 ppm): 4.78
Overall sweet impression (group of experts [1]; 7% Sucrose-solution + 7 ppm): 5.93
Sugar full flavour and taste (group of experts [1]; 7% Sucrose-solution + 7 ppm): 4.42
Beginning of sweet impression (<2 sec) (group of experts [1]; 7% Sucrose-solution + 20 ppm): 4.49
Overall sweet impression (group of experts [1]; 7% Sucrose-solution + 20 ppm): 4.90
Sugar full flavour and taste (group of experts [1]; 7% Sucrose-solution + 20 ppm): 4.11
Effect on the overall sweet impression (in words) (group of experts [1]; [10]): increases
Influence on the beginning of sweet impression (sweet impact) and the perceived sugar full flavour and taste (in words) (group of experts [1]; [10]): positive influence
Reduction in bitter impression by adding 10 ppm of compound (I) (group of experts [3]; 5 ppm Chininhydrochloride): −25.0%
Bitter impression of bitter substance + compound (I) (average values) (group of experts [3]; 5 ppm Chininhydrochloride + 10 ppm compound (I), rating 1 to 100): 29.05
Reduction of the bitter impression of Chininhydrochloride (in words) (group of experts [3]; 10 ppm): remarkable reduction
Bitter impression of bitter substance + compound (I) (average values) (group of experts [3]; 100 ppm Naringin + 10 ppm compound (I), rating 1 to 100): 46.54
Reduction in bitter impression by adding 10 ppm of compound (I) (group of experts [3]; 100 ppm Naringin, * sign.lev. α=0.05): −21.5%*
Bitter impression of bitter substance + compound (I) (average values) (group of experts [3]; 250 ppm Salicin + 10 ppm compound (I), rating 1 to 100): 51.40
Reduction in bitter impression by adding 10 ppm of compound (I) (group of experts [3]; 250 ppm Salicin, * sign.lev. α=0.05): −17.6%*
Reduction in bitter impression by adding 10 ppm of compound (I) (group of experts [3]; 300 ppm Theobromine): −12.4%
Bitter impression of bitter substance + compound (I) (average values) (group of experts [3]; 300 ppm Theobromine + 10 ppm compound (I), rating 1 to 100): 45.01
Reduction in bitter impression by adding 10 ppm of compound (I) (group of experts [3]; 500 ppm Coffeine): −13.8%
Bitter impression of bitter substance + compound (I) (average values) (group of experts [3]; 500 ppm Coffeine + 10 ppm compound (I), rating 1 [not bitter] to 100 [extremely bitter]): 37.46
Reduction of the bitter impression of Naringin compared to deoxy hesperetin dihydrochalcone (in words) (group of experts [3]; Naringin, 10 ppm versus 50 ppm deoxy hesperetin dihydrochalcone): notable increase in the reduction of the bitter impression
Influence on the taste profile of chicken flavour (chicken meat note, boiled note, bony, light sour) (group of experts [4]): without a negative influence
Mouth fullness of chicken flavour (in words) (group of experts [4]): remarkably enhance
Cooling effect (in words) (group of experts [5]): slightly improvement
Perception of cooling impression (in words) (group of experts [5]): faster
Sweet impression compared to the 1.5 wt % aqueous sucrose solution (group of 30 experts): remarkably weaker
Intensification of the sweet impression (group of experts [6]; 5% sucrose + 1 ppm test substance): 14.1%
Sweet impression (1-10) Specimen (Sucrose + Test substance) (group of experts [6]; 5% sucrose + 1 ppm test substance, rating 1 [not sweet] to 10 [extremely sweet]): 6.1
Intensification of the sweet impression (group of experts [6]; 5% sucrose + 5 ppm test substance): 32.6%
Sweet impression (1-10) Specimen (Sucrose + Test substance) (group of experts [6]; 5% sucrose + 5 ppm test substance, rating 1 to 10): 7.1
Intensification of the sweet impression (group of experts [6]; 5% sucrose + 7 ppm test substance): 35.7%
Sweet impression (1-10) Specimen (Sucrose + Test substance) (group of experts [6]; 5% sucrose + 7 ppm test substance, rating 1 to 10): 7.3
Intensification of the sweet impression (group of experts [6]; [11]): 38.6%
Sweet impression (1-10) Specimen (Sucrose + Test substance) (group of experts [6]; [12]): 7.8
Intensification of the sweet impression compared to 10 ppm deoxy hesperetin dihydrochalcone (in words) (group of experts [6]; 5 ppm, 5% sucrose): clearly higher
Intensification of the sweet impression compared to the same amount of deoxy hesperetin dihydrochalcone (in words) (group of experts [6]; 10 ppm, 5% sucrose): remarkable intensification

C=C1C[C@@]23CC[C@H]4[C@@](C)(CCC[C@@]4(C)C(=O)O[C@@H]4O[C@H](CO)[C@@H](O)[C@H](O)[C@H]4O)[C@@H]2CC[C@]1(O[C@@H]1O[C@H](CO)[C@@H](O)[C@H](O[C@@H]2O[C@H](CO)[C@@H](O)[C@H](O)[C@H]2O)[C@H]1O[C@@H]1O[C@H](CO)[C@@H](O)[C@H](O)[C@H]1O)C3 [rebaudioside A]
Concentration necessary to achieve a sweetness corresponding to a concentration of sucrose of 10% by weight [7]: 400-600 ppm

deoxy hesperetin dihydrochalcone [reference compound]
Reduction in bitter impression by adding 50 ppm of deoxy hesperetin dihydrochalcone (group of experts [3]; 5 ppm Chininhydrochloride): +10.7%
Reduction of the bitter impression of Chininhydrochloride (in words) (group of experts [3]; 50 ppm): no reduction
Amount necessary, as factor of the amount of hesperetin dihydrochalcone (I), to obtain a similar reduction of the bitter impression (group of experts [3]; 50 ppm versus 10 ppm): 5
Reduction in bitter impression by adding 50 ppm of deoxy hesperetin dihydrochalcone (group of experts [3]; 100 ppm Naringin): −6.6%
Reduction in bitter impression by adding 50 ppm of deoxy hesperetin dihydrochalcone (group of experts [3]; 250 ppm Salicin): −15.2%
Reduction in bitter impression by adding 50 ppm of deoxy hesperetin dihydrochalcone (group of experts [3]; 500 ppm Coffeine): −11.3%
Intensification of the sweet impression (group of experts [6]; [11]): 21.2%
Sweet impression (1-10) Specimen (Sucrose + Test substance) (group of experts [6]; [12]): 6.4
Intensification of the sweet impression (group of experts [6]; 5% sucrose + 25 ppm test substance): 42%
Sweet impression (1-10) Specimen (Sucrose + Test substance) (group of experts [6]; 5% sucrose + 25 ppm test substance, rating 1 to 10): 6.9

B1: miraculin (protein, UniProt P13087 30-220, looked up)
Miraculin: DSAPNPVLDIDGEKLRTGTNYYIVPVLRDHGGGLTVSATTPNGTFVCPPRVVQTRKEVDHDRPLAFFPENPKEDVVRVSTDLNINFSAFMPCRWTSSTVWRLDKYDESTGQYFVTIGGVKGNPGPETISSWFKIEEFCGSGFYKLVFCPTVCGSCKVKCGDVGIYIDQKGRRRLALSDKPFAFEFNKTVYF
notes: protein that in the presence of acids transforms the sour impression into a sweet taste impression
Duration of the effect (sour impression transformed into sweet taste impression) [8]: 2 to 4 h
